These results are taken from US20090118135A1, “METHODS AND COMPOUNDS FOR REGULATING APOPTOSIS” (The Burnham Institute, priority 2007, published 2009).

The target of one experiment is T1, GST-Bcl-B (Homo sapiens, UniProt Q9HD36).
T1 sequence (Q9HD36 1-182 limits assumed): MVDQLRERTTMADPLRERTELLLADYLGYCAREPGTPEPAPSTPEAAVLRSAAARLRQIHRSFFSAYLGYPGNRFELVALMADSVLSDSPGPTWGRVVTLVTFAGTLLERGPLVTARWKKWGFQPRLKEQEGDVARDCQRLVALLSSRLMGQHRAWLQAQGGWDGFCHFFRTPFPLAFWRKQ
The experiment is described as follows: FITC-TR3-r8 direct binding fluorescence polarization assay, Bcl-B. Details: their C-terminal transmembrane domains (˜20 amino acids) were deleted to enhance protein solubility; made in house; host or cells: E. coli (BL21 Star (DE3); XL-1 Blue), pGEX-4T-1. Conditions: FIG. 2A; result in words.

In another experiment the target is T2, GST-Bcl-W (Homo sapiens, UniProt Q92843).
T2 construct: GST-fusion proteins containing ΔTM versions of Bcl-2, Bcl-XL, Bfl-1, Mcl-1, Bcl-W, and Bcl-B; made in house
T2 sequence (Q92843 1-173 limits assumed): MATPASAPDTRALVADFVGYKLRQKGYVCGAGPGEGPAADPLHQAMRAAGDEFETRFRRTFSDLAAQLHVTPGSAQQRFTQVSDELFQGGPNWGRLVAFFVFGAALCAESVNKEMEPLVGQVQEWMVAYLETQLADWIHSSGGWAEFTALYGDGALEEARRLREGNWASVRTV
Kind of experiment: FITC-TR3-9-r8 direct binding fluorescence polarization assay, Bcl-W. The conditions noted are these: FIG. 2B; result in words. (In general: Fluorescence polarisation rises when a labelled molecule tumbles more slowly, as on binding a larger partner.)

In the next experiment the target is T3, GST-Bfl-1 (Homo sapiens, UniProt Q16548).
T3 construct: lacking their C-terminal transmembrane domains (about the last 20 amino acids) (“ΔTM”); made in house; host or cells: XL-1 Blue E. coli, pGEX 4T-1
T3 sequence (Q16548 1-155 limits assumed): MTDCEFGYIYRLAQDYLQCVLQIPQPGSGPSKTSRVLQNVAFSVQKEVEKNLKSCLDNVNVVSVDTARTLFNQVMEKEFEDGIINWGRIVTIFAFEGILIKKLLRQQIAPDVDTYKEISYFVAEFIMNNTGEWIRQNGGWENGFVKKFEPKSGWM
The experiment is described as follows: FITC-TR3-9-r8 direct binding fluorescence polarization assay, Bfl-1. The conditions noted are these: FIG. 2B; result in words.

The target of the next experiment is GST-Bcl-2 (Homo sapiens, UniProt P10415). The experiment is described as follows: FITC-TR3-9-r8 direct binding fluorescence polarization assay, Bcl-2. Details: their C-terminal transmembrane domains (˜20 amino acids) were deleted to enhance protein solubility; made in house; host or cells: E. coli (BL21 Star (DE3); XL-1 Blue), pGEX-4T-1. The conditions noted are these: FIG. 2A; result in words.
Sequence of GST-Bcl-2 (P10415 1-218 limits assumed): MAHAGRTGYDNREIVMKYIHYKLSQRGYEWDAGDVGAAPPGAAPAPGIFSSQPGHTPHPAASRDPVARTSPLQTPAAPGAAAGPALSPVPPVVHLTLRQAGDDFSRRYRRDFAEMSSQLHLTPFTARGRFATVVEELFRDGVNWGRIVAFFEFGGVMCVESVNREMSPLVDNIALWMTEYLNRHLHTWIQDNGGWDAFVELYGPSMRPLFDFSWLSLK

The next experiment has as its target T4, GST-Bcl-XL (Homo sapiens, UniProt Q07817).
T4 construct: lacking their C-terminal transmembrane domains (about the last 20 amino acids) (“ΔTM”); made in house; host or cells: XL-1 Blue E. coli, pGEX 4T-1
Kind of experiment: FITC-TR3-9-r8 direct binding fluorescence polarization assay, Bcl-XL. Conditions: FIG. 2A; result in words.

T4 sequence (Q07817 1-212 limits assumed): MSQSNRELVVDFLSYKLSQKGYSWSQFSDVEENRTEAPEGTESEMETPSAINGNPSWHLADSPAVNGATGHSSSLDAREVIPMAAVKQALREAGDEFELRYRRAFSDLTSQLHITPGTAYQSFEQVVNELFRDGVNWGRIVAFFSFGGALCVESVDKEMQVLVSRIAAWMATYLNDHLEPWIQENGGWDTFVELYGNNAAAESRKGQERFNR

For `CC(C)C[C@H](NC(=O)[C@H](CC(C)C)NC(=O)[C@H](CO)NC(=O)[C@H](Cc1c[nH]cn1)NC(=O)[C@H](CC(C)C)NC(=O)[C@H](CO)NC(=O)[C@H](CCCNC(=N)N)NC(=O)[C@H](CO)NC(=O)[C@H](Cc1ccccc1)NC(=O)CCCCCNC(=S)Nc1ccc2c(c1)C(=O)OC21c2ccc(O)cc2Oc2cc(O)ccc21)C(=O)NCC(=O)NCCCCCC(=O)N[C@H](CCCNC(=N)N)C(=O)N[C@H](CCCNC(=N)N)C(=O)N[C@H](CCCNC(=N)N)C(=O)N[C@H](CCCNC(=N)N)C(=O)N[C@H](CCCNC(=N)N)C(=O)N[C@H](CCCNC(=N)N)C(=O)N[C@H](CCCNC(=N)N)C(=O)N[C@H](CCCNC(=N)N)C(N)=O` [FITC-TR3-9-r8], the “binding to GST-Bcl-B” value on GST-Bcl-B is “Binding to GST-Bcl-2 and GST-Bcl-B”. For the same molecule, the “binding to GST-Bcl-W” value on GST-Bcl-W is “but not GST-Bcl-W”. On GST-Bfl-1, the “binding to GST-Bfl-1” value was “Binding to GST-Bfl-1”. The “binding to GST-Bcl-2” value at GST-Bcl-2 is on record as “Binding to GST-Bcl-2”. Besides, the “binding to GST-Bcl-XL” value at GST-Bcl-XL is “but not GST-Bcl-XL”.
